How the values were obtained:
[1] = test system: A549 cells; assay: Cell migration assay (transwell membrane); assay type: cell-based, human; details: KL1 in different amounts, 8 hours
Method: On MMP2 activity (FIG. 37) and cell migration (FIGS. 38 and 39), KL1-dose-dependent effect was measured. For the test on the cell migration, the cells were treated with KL1 for 8 hours. In FIG. 40, in order to see the effect of KL1 on protein synthesis of cells, A549 cells were treated with KL1 at indicated concentrations, and starved in methionine-free medium. Then, [^35S] methionine was added thereto for 2 hours. Then, the cells were incubated in complete medium for 4 hours, and the level of added methionine was measured by a scintillation counter. In FIG. 41, KL1-dose-dependent cytotoxicity was measured by using A549 cells. In FIG. 42, the effect of KL1 on cancer metastasis was measured according to the method as described above. In each group, 6 mice were included, and KL1 was abdominally injected for 3 weeks, in a dose of 30 mg/kg once a day. […] The metastasized tumor nodules over 1 mm in diameter were counted, and their average was calculated (left). […]
Cell migration was measured by using 24-well transwell chambers with polycarbonate membranes (8.0 μm pore size, Costar) as previously described (Park, S. G. et al. Human lysyl-tRNA synthetase is secreted to trigger pro-inflammatory response, Proc. Natl. Acad. Sci. USA 102, 6356-6361 (2005)). […] The migrated cells (attached to the lower face of the membrane) were counted at four randomly selected sites by a microscope (×20).

[2] = target: T1, interaction between laminin receptor and GST-KRS (Homo sapiens, UniProt Q15046); assay: In vitro pull-down of radiolabelled laminin receptor with GST-KRS; assay type: binding; details: KL1 in different amounts; GST-KRS 1 μg; autoradiography
T1 construct: made in house; host or cells: GST-KRS: E. coli Rosetta (DE3); 37LRP: TNT Quick coupled Transcription/Translation system (Promega) from pcDNA3-37LRP
T1 sequence (Q15046 whole entry): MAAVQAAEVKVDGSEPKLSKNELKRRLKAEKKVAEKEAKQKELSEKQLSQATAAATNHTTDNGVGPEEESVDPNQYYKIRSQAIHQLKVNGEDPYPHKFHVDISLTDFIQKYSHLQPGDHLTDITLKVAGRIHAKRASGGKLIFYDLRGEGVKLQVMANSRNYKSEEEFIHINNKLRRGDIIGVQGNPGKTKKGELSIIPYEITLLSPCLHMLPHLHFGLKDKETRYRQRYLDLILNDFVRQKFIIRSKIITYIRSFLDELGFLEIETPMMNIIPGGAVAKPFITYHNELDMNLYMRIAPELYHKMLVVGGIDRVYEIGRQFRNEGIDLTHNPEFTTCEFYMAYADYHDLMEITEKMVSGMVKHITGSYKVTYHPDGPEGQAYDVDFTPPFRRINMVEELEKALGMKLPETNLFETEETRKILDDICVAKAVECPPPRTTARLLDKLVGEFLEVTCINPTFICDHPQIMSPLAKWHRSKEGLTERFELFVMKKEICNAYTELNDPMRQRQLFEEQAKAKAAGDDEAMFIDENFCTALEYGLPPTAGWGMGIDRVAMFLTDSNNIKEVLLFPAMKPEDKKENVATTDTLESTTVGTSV
Method: (§1) As a control, an OD level of cells treated with DMSO was measured. FIG. 32 is a photograph showing cell growth in wells containing yeast cells having indicated interaction pairs in the presence or absence of CAND-KL1. In FIG. 33, in 293 cells, through co-immunoprecipitation, the KL1-dose-dependent effect on the interaction between KRS and 67LR was tested. The cells were treated with KL1 for 3 hours, 67LR was immunoprecipitated, and co-precipitation of KRS was determined by western blotting. In FIG. 34, in the presence of KL1 in indicated levels, a laminin receptor labeled with radioisotope was mixed with GST-KRS (1 μg). GST-KRS was precipitated with glutathione-Sepharose beads, and co-precipitated laminin receptor was detected with autoradiography. In FIG. 35, in A549 cells, the effect of KL1 on the intracellular level of 67LR and 37LRP was tested with western blotting. […] GST-KRS was immobilized on a CM5 Sensor Chip, and the binding was measured by a resonance unit (RU) at indicated concentrations (indicated by different colors). […]
From among the compounds, the inventors also examined whether the compound represented by Formula 15 (indicated by CAND-KL1, and KL1) can inhibit the intracellular interaction between KRS and 67LR. […] Then, 67LR was immunoprecipitated with its antibody, and co-immunoprecipitation of KRS was determined. […]

[3] = target: T2, GST-KRS (Homo sapiens, UniProt Q15046); assay: Surface plasmon resonance assay (BIAcore3000); details: GST-KRS immobilized on CM5 chip, binding to GST subtracted, 25° C., 1:1 binding
T2 construct: made in house; host or cells: E. coli Rosetta (DE3)
T2 sequence (Q15046 whole entry): as above
Method: as §1
The interaction between KRS and the compound (Formula 15) was tested by BIAcore3000 (GE healthcare). […] Then, the binding was measured by a change in a resonance unit (RU). The specific binding activity of CAND-KL1 to GST-KRS was measured by subtracting binding to GST in sensorgram. […]

CCC(C(=O)O)n1/c(=N/C(=O)c2ccc(C)cc2)sc2ccccc21 (stereo not drawn) [Compound of formula 15, 2-[2-(4-Methyl-benzoylimino)-benzothiazol-3-yl]-butyric acid]
cell migration [1]: inhibited
level of laminin receptor pulled down with GST-KRS [2]: decreased according to an increase of the added KL1 compound
Kd [3]: ~2600 nM
